A short description of this data set: Pharmacokinetics of GST-HG171 and ritonavir in plasma, alone and co-administered with itraconazole (drug-drug interaction study). To be noted: Day 3, N = 12, median (minimum, maximum).

As to `CC(C)c1nc(CN(C)C(=O)N[C@H](C(=O)N[C@@H](Cc2ccccc2)C[C@H](O)[C@H](Cc2ccccc2)NC(=O)OCc2cncs2)C(C)C)cs1` [Ritonavir, ritonavir], the Tmax is recorded as 2.50 (2.0008, 3.0011) h.

(Values after publication PMC13231921 (Antimicrobial Agents and Chemotherapy, 2026).)
